Results from patent US20230085307A1, “PYRIDAZINONE COMPOUND AND HERBICIDE” (NISSAN CHEMICAL CORPORATION, priority 2019, published 2023).

Experiments:
[1] = test system: late watergrass; assay: Test Example 2: herbicidal activity, application during weed generation under submerged conditions (Table 17, symbol A); format: in vivo, late watergrass (Echinochloa oryzicola); conditions: AAH 320 g/ha; application during weed generation, submerged conditions
In short: (§1)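 Herbicide emulsion, diluted with water to the chosen amount, is applied onto 4 cm floodwater over alluvial soil where the weeds were co-sown and raised at 25–30° C. Application timing: 1–2 leaves. Assessment: three weeks afterwards.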

[2] = test system: Japanese bulrush; assay: Test Example 2: herbicidal activity, application during weed generation under submerged conditions (Table 17, symbol B); format: in vivo, Japanese bulrush (Schoenoplectus juncoides); conditions: AAH 320 g/ha; application during weed generation, submerged conditions
In short: as §1

[3] = test system: oval-leafed pondweed; assay: Test Example 2: herbicidal activity, application during weed generation under submerged conditions (Table 17, symbol C); format: in vivo, oval-leafed pondweed (Monochoria vaginalis); conditions: AAH 320 g/ha; application during weed generation, submerged conditions
Protocol: [Test Example 2] Herbicidal Activity Test by Application during Weed Generation under Submerged Conditions After alluvial soil was placed into 1/10000 are of Wagner pot, water was poured and mixed to form a submerged condition having a water depth of 4 cm. Seeds of late watergrass, Japanese bulrush, and oval-leafed pondweed were sowed in a mixed manner in the aforementioned pot, and the pot was placed in a greenhouse at 25° C. to 30° C. for growth of the plants. When late watergrass, Japanese bulrush, and oval-leafed pondweed were grown to one leaf stage to two leaf stage, the emulsion agent of the compound of the present invention prepared according to Formulation Example 2 was diluted with water so as to achieve a predetermined herbicide amount, and the diluted emulsion agent was applied to the surface of the water. Three weeks after the herbicide application, the effect of the herbicide on each plant was evaluated according to the criteria of Test Example 1.

[4] = test system: barnyard grass; assay: Test Example 3: herbicidal effect by foliage application, Wagner pot (Table 18, symbol H); format: in vivo, barnyard grass (Echinochloa crus-galli)
In short: (§2)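 Plants were sown in alluvial soil held under 0.1–0.5 cm standing water and grown 14 days in a greenhouse at 25–30 °C. An emulsifiable formulation, water-diluted to the set dose, was then sprayed onto the foliage, and effects were scored three weeks later using previously defined criteria.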

[5] = test system: Chinese sprangletop; assay: Test Example 3: herbicidal effect by foliage application, Wagner pot (Table 18, symbol D); format: in vivo, chinese sprangletop (Leptochloa chinensis)
In short: as §2

[6] = test system: rice flat sedge; assay: Test Example 3: herbicidal effect by foliage application, Wagner pot (Table 18, symbol E); format: in vivo, rice flat sedge (Cyperus iria)
In short: as §2

[7] = test system: southern crabgrass; assay: Test Example 5: herbicidal effect by foliage application, plastic box (Table 20, symbol F); format: in vivo, southern crabgrass (Digitaria ciliaris); conditions: evaluated three weeks after application
In short: (§3)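 Post-emergence foliar test in sterilized diluvial soil. Compound applied as water-diluted emulsion at a predetermined rate to 14-day-old plants; evaluation at three weeks.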

[8] = test system: green foxtail; assay: Test Example 5: herbicidal effect by foliage application, plastic box (Table 20, symbol G); format: in vivo, green foxtail (Setaria viridis); conditions: evaluated three weeks after application
In short: as §3

[9] = test system: barnyard grass; assay: Test Example 5: herbicidal effect by foliage application, plastic box (Table 20, symbol H); format: in vivo, barnyard grass (Echinochloa crus-galli); conditions: evaluated three weeks after application
In short: as §3

[10] = test system: wild oat; assay: Test Example 5: herbicidal effect by foliage application, plastic box (Table 20, symbol I); format: in vivo, wild oat (Avena fatua); conditions: evaluated three weeks after application
In short: as §3

[11] = test system: blackgrass; assay: Test Example 5: herbicidal effect by foliage application, plastic box (Table 20, symbol J); format: in vivo, blackgrass (Alopecurus myosuroides); conditions: evaluated three weeks after application
In short: as §3

[12] = test system: Italian ryegrass; assay: Test Example 5: herbicidal effect by foliage application, plastic box (Table 20, symbol K); format: in vivo, Italian ryegrass (Lolium multiflorum); conditions: evaluated three weeks after application
In short: as §3

[13] = test system: windgrass; assay: Test Example 5: herbicidal effect by foliage application, plastic box (Table 20, symbol L); format: in vivo, windgrass (Apera spica-venti); conditions: evaluated three weeks after application
In short: as §3

[14] = test system: velvetleaf; assay: Test Example 5: herbicidal effect by foliage application, plastic box (Table 20, symbol M); format: in vivo, velvetleaf (Abutilon theophrasti); conditions: evaluated three weeks after application
In short: as §3

[15] = test system: redroot pigweed; assay: Test Example 5: herbicidal effect by foliage application, plastic box (Table 20, symbol N); format: in vivo, redroot pigweed (Amaranthus retroflexus); conditions: evaluated three weeks after application
In short: as §3

[16] = test system: lambsquarters; assay: Test Example 5: herbicidal effect by foliage application, plastic box (Table 20, symbol O); format: in vivo, lambsquarters (Chenopodium album); conditions: evaluated three weeks after application
In short: as §3

[17] = test system: chickweed; assay: Test Example 5: herbicidal effect by foliage application, plastic box (Table 20, symbol P); format: in vivo, common chickweed (Stellaria media); conditions: evaluated three weeks after application
In short: as §3

[18] = test system: persian speedwell; assay: Test Example 5: herbicidal effect by foliage application, plastic box (Table 20, symbol R); format: in vivo, Persian speedwell (Veronica persica); conditions: 320 g/ha, evaluated three weeks after application
In short: as §3

[19] = amount of applied herbicide 320 g/ha
[20] = foliage application, AAH 320 g/ha
[21] = 320 g/ha, foliage application after 14-day growth

## Cc1nn(C)c(=O)c(-c2c(-c3ccc(OCc4ccccc4)cc3)sc3ccc(F)cc23)c1OCc1ccccc1 [2-065]
[1]
  herbicidal effect rating, A: late watergrass: 3 (Herbicidal rate of 40% or more and less than 70%)
[2]
  herbicidal effect rating, B: Japanese bulrush: 0 (Herbicidal rate of 5% or less (almost no effect))
[3]
  herbicidal effect rating, C: oval-leafed pondweed: 0 (Herbicidal rate of 5% or less (almost no effect))
[4]; 320 g/ha
  herbicidal effect on H (barnyard grass), rating 0-5: 3 (Herbicidal rate of 40% or more and less than 70%)
[5]; 320 g/ha
  herbicidal effect on D (Chinese sprangletop), rating 0-5: 3 (Herbicidal rate of 40% or more and less than 70%)
[6]; 320 g/ha
  herbicidal effect on E (rice flat sedge), rating 0-5: 3 (Herbicidal rate of 40% or more and less than 70%)
[7]; foliage application, 320 g/ha
  herbicidal effect on F: southern crabgrass: 0 (Herbicidal rate of 5% or less (almost no effect))
[8]; foliage application, 320 g/ha
  herbicidal effect on G: green foxtail: 0 (Herbicidal rate of 5% or less (almost no effect))
[9]; foliage application, 320 g/ha
  herbicidal effect on H: barnyard grass: 0 (Herbicidal rate of 5% or less (almost no effect))
[10]; foliage application, 320 g/ha
  herbicidal effect on I: wild oat: 0 (Herbicidal rate of 5% or less (almost no effect))
[11]; foliage application, 320 g/ha
  herbicidal effect on J: blackgrass: 0 (Herbicidal rate of 5% or less (almost no effect))
[12]; foliage application, 320 g/ha
  herbicidal effect on K: Italian ryegrass: 0 (Herbicidal rate of 5% or less (almost no effect))
[13]; foliage application, 320 g/ha
  herbicidal effect on L: windgrass: 0 (Herbicidal rate of 5% or less (almost no effect))
[14]; foliage application, 320 g/ha
  herbicidal effect on M: velvetleaf: 0 (Herbicidal rate of 5% or less (almost no effect))
[15]; foliage application, 320 g/ha
  herbicidal effect on N: redroot pigweed: 3 (Herbicidal rate of 40% or more and less than 70%)
[16]; foliage application, 320 g/ha
  herbicidal effect on O: lambsquarters: 1 (Herbicidal rate of 5% or more and less than 20%)
[17]; foliage application, 320 g/ha
  herbicidal effect on P: chickweed: 0 (Herbicidal rate of 5% or less (almost no effect))
[18]; foliage application
  herbicidal effect on R: persian speedwell: 0 (Herbicidal rate of 5% or less (almost no effect))

## COCCOc1cccc(-c2sc3ccc(F)cc3c2-c2c(O)c(C)nn(C)c2=O)c1 [2-271]
[1]
  herbicidal effect rating, A: late watergrass: 3 (Herbicidal rate of 40% or more and less than 70%)
[2]
  herbicidal effect rating, B: Japanese bulrush: 0 (Herbicidal rate of 5% or less (almost no effect))
[3]
  herbicidal effect rating, C: oval-leafed pondweed: 0 (Herbicidal rate of 5% or less (almost no effect))
[4]; [19]
  herbicidal effect on H: barnyard grass: 3 (Herbicidal rate of 40% or more and less than 70%)
[5]; [19]
  herbicidal effect on D: Chinese sprangletop: 0 (Herbicidal rate of 5% or less (almost no effect))
[6]; [19]
  herbicidal effect on E: rice flat sedge: 3 (Herbicidal rate of 40% or more and less than 70%)
[7]; [20]
  F: southern crabgrass, herbicidal effect (criteria 0-5): 0 (Herbicidal rate of 5% or less (almost no effect))
[8]; [20]
  G: green foxtail, herbicidal effect (criteria 0-5): 0 (Herbicidal rate of 5% or less (almost no effect))
[9]; [20]
  H: barnyard grass, herbicidal effect (criteria 0-5): 0 (Herbicidal rate of 5% or less (almost no effect))
[10]; [20]
  I: wild oat, herbicidal effect (criteria 0-5): 0 (Herbicidal rate of 5% or less (almost no effect))
[11]; [20]
  J: blackgrass, herbicidal effect (criteria 0-5): 0 (Herbicidal rate of 5% or less (almost no effect))
[12]; [20]
  K: Italian ryegrass, herbicidal effect (criteria 0-5): 0 (Herbicidal rate of 5% or less (almost no effect))
[13]; [20]
  L: windgrass, herbicidal effect (criteria 0-5): 0 (Herbicidal rate of 5% or less (almost no effect))
[14]; [20]
  M: velvetleaf, herbicidal effect (criteria 0-5): 0 (Herbicidal rate of 5% or less (almost no effect))
[15]; [20]
  N: redroot pigweed, herbicidal effect (criteria 0-5): 3 (Herbicidal rate of 40% or more and less than 70%)
[16]; [20]
  O: lambsquarters, herbicidal effect (criteria 0-5): 0 (Herbicidal rate of 5% or less (almost no effect))
[17]; [20]
  P: chickweed, herbicidal effect (criteria 0-5): 5 (Herbicidal rate of 90% or more (almost completely withered))

## Cc1ccc(-c2sc3c(Cl)cccc3c2-c2c(O)c(C)nn(C)c2=O)cc1 [4-019]
[1]
  herbicidal effect rating, A: late watergrass: 4 (Herbicidal rate of 70% or more and less than 90%)
[2]
  herbicidal effect rating, B: Japanese bulrush: 0 (Herbicidal rate of 5% or less (almost no effect))
[3]
  herbicidal effect rating, C: oval-leafed pondweed: 0 (Herbicidal rate of 5% or less (almost no effect))
[4]; 320 g/ha
  herbicidal effect on barnyard grass (H): 3 (Herbicidal rate of 40% or more and less than 70%)
[5]; 320 g/ha
  herbicidal effect on Chinese sprangletop (D): 4 (Herbicidal rate of 70% or more and less than 90%)
[6]; 320 g/ha
  herbicidal effect on rice flat sedge (E): 5 (Herbicidal rate of 90% or more (almost completely withered))
[7]; [21]
  herbicidal effect on F: southern crabgrass (evaluation grade 0-5): 0 (Herbicidal rate of 5% or less (almost no effect))
[8]; [21]
  herbicidal effect on G: green foxtail (evaluation grade 0-5): 1 (Herbicidal rate of 5% or more and less than 20%)
[9]; [21]
  herbicidal effect on H: barnyard grass (evaluation grade 0-5): 0 (Herbicidal rate of 5% or less (almost no effect))
[10]; [21]
  herbicidal effect on I: wild oat (evaluation grade 0-5): 3 (Herbicidal rate of 40% or more and less than 70%)
[11]; [21]
  herbicidal effect on J: blackgrass (evaluation grade 0-5): 0 (Herbicidal rate of 5% or less (almost no effect))
[12]; [21]
  herbicidal effect on K: Italian ryegrass (evaluation grade 0-5): 3 (Herbicidal rate of 40% or more and less than 70%)
[13]; [21]
  herbicidal effect on L: windgrass (evaluation grade 0-5): 1 (Herbicidal rate of 5% or more and less than 20%)
[14]; [21]
  herbicidal effect on M: velvetleaf (evaluation grade 0-5): 5 (Herbicidal rate of 90% or more (almost completely withered))
[15]; [21]
  herbicidal effect on N: redroot pigweed (evaluation grade 0-5): 5 (Herbicidal rate of 90% or more (almost completely withered))
[16]; [21]
  herbicidal effect on O: lambsquarters (evaluation grade 0-5): 1 (Herbicidal rate of 5% or more and less than 20%)
[17]; [21]
  herbicidal effect on P: chickweed (evaluation grade 0-5): 5 (Herbicidal rate of 90% or more (almost completely withered))
[18]; foliage application after 14-day growth
  herbicidal effect on R: persian speedwell (evaluation grade 0-5): 4 (Herbicidal rate of 70% or more and less than 90%)
